Experimental data taken from patent US20240174618A1, “SUBSTITUTED (2-HETEROARYLOXYPHENYL)SULFONATES, SALTS THEREOF AND THEIR USE AS HERBICIDAL AGENTS” (Bayer Aktiengesellschaft, priority 2021, published 2024).

Assays:
Type in all cases: in vivo
[1] = test system: Amaranthus retroflexus (AMARE); experiment: C. Herbicidal pre-emergence efficacy, AMARE; details: scored after about 3 weeks
In short: (§1)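 Pre-emergence test: formulated compounds sprayed as aqueous suspension or emulsion with 0.5% additive at 600 l/ha onto soil covering sown seeds, at rates corresponding to 320 g/ha or less. After about 3 weeks in greenhouse, efficacy scored visually as percent versus untreated controls (100% = plants dead).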

[2] = test system: Abutilon theophrasti (ABUTH); experiment: A. Herbicidal pre-emergence efficacy, ABUTH; details: scored visually after about 3 weeks vs untreated controls
In short: (§2)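 Applied before emergence onto covering soil at rates of 1280 g/ha or less, using 600 L/ha spray water with 0.5% additive. Scoring: visual % efficacy after ~3 weeks, greenhouse.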

Poa annua (POAAN) = experiment: B. Herbicidal post-emergence efficacy, POAAN
In short: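 Weeds grown in sandy loam in greenhouse pots, sprayed at one-leaf stage (2–3 weeks after sowing) with WP or EC formulations as aqueous suspension/emulsion plus 0.5% additive at 600 L/ha water, rates up to 1280 g/ha. Visual efficacy rated about 3 weeks later versus untreated controls (0% = like control, 100% = dead).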

Viola tricolor (VIOTR) = experiment: C. Herbicidal pre-emergence efficacy, VIOTR
In short: as §1

Kochia scoparia (KCHSC) = experiment: A. Herbicidal pre-emergence efficacy, KCHSC
In short: as §2

Veronica persica (VERPE) = experiment: C. Herbicidal pre-emergence efficacy, VERPE; details: scored after about 3 weeks
In short: as §1

Lolium rigidum (LOLRI) = experiment: C. Herbicidal pre-emergence efficacy, LOLRI; details: scored after about 3 weeks
Source text: Seeds of monocotyledonous and dicotyledonous weed plants and crop plants were placed in plastic or organic planting pots and covered with soil. The compounds of the invention, formulated in the form of wettable powders (WP) or as emulsion concentrates (EC), were then applied to the surface of the covering soil as aqueous suspension or emulsion with addition of 0.5% additive at a water application rate equivalent to 600 l/ha (converted). After the treatment, the pots were placed in a greenhouse and kept under good growth conditions for the test plants. After about 3 weeks, the efficacy of the preparations was scored visually in comparison with untreated controls as percentages. For example, • 100% efficacy=plants have died, • 0% efficacy=like untreated control plants.
Tables C1a to C14b below show the effects of selected compounds of the general formula (I) according to table 1 on various harmful plants at an application rate corresponding to 320 g/ha or less, which were obtained by the experimental procedure mentioned above.

[3] = test system: Amaranthus retroflexus (AMARE); experiment: A. Herbicidal pre-emergence efficacy, AMARE
In short: as §2

[4] = 80 g/ha, scored visually after about 3 weeks vs untreated controls
[5] = pre-emergence, dosage 1280 g/ha

O=S(=O)(CCCCl)Oc1ccccc1Oc1ncc(Cl)cn1 [Example I-2]
90%: Post-emergence efficacy against POAAN (Poa annua (POAAN); 80 g/ha) | Pre-emergence efficacy against VERPE (Veronica persica (VERPE); 80 g/ha)
100%: Pre-emergence efficacy against AMARE ([1]; 80 g/ha) | Pre-emergence efficacy against AMARE ([1]; 320 g/ha) | Pre-emergence efficacy against ABUTH ([2]; 80 g/ha) | Pre-emergence efficacy against ABUTH ([2]; 320 g/ha) | Pre-emergence efficacy against ABUTH ([2]; 1280 g/ha) | Post-emergence efficacy against POAAN (Poa annua (POAAN); 320 g/ha) | Post-emergence efficacy against POAAN (Poa annua (POAAN); 1280 g/ha) | Pre-emergence efficacy against VIOTR in % (Viola tricolor (VIOTR); application rate 80 g/ha) | Pre-emergence efficacy against VIOTR in % (Viola tricolor (VIOTR); application rate 320 g/ha) | Pre-emergence efficacy against KCHSC (Kochia scoparia (KCHSC); [4]) | Pre-emergence efficacy against KCHSC (Kochia scoparia (KCHSC); pre-emergence, dosage 320 g/ha) | Pre-emergence efficacy against KCHSC (Kochia scoparia (KCHSC); [5]) | Pre-emergence efficacy against VERPE (Veronica persica (VERPE); 320 g/ha) | Pre-emergence efficacy against LOLRI (Lolium rigidum (LOLRI); 320 g/ha) | Pre-emergence efficacy against AMARE in % ([3]; 80 g/ha) | Pre-emergence efficacy against AMARE in % ([3]; 320 g/ha) | Pre-emergence efficacy against AMARE in % ([3]; 1280 g/ha)

CCCS(=O)(=O)Oc1ccccc1Oc1ncc(Cl)cn1 [Example I-3]
90%: Post-emergence efficacy against POAAN (Poa annua (POAAN); 1280 g/ha) | Pre-emergence efficacy against VIOTR in % (Viola tricolor (VIOTR); application rate 80 g/ha) | Pre-emergence efficacy against LOLRI (Lolium rigidum (LOLRI); 320 g/ha)
100%: Pre-emergence efficacy against AMARE ([1]; 80 g/ha) | Pre-emergence efficacy against AMARE ([1]; 320 g/ha) | Pre-emergence efficacy against ABUTH ([2]; 80 g/ha) | Pre-emergence efficacy against ABUTH ([2]; 320 g/ha) | Pre-emergence efficacy against ABUTH ([2]; 1280 g/ha) | Pre-emergence efficacy against VIOTR in % (Viola tricolor (VIOTR); application rate 320 g/ha) | Pre-emergence efficacy against KCHSC (Kochia scoparia (KCHSC); [4]) | Pre-emergence efficacy against KCHSC (Kochia scoparia (KCHSC); pre-emergence, dosage 320 g/ha) | Pre-emergence efficacy against KCHSC (Kochia scoparia (KCHSC); [5]) | Pre-emergence efficacy against VERPE (Veronica persica (VERPE); 320 g/ha) | Pre-emergence efficacy against AMARE in % ([3]; 80 g/ha) | Pre-emergence efficacy against AMARE in % ([3]; 320 g/ha) | Pre-emergence efficacy against AMARE in % ([3]; 1280 g/ha)

O=S(=O)(CCCC(F)(F)F)Oc1c(F)cccc1Oc1ncc(F)cn1 [Example I-42]
100%: Pre-emergence efficacy against AMARE ([1]; 80 g/ha) | Pre-emergence efficacy against AMARE ([1]; 320 g/ha) | Pre-emergence efficacy against ABUTH ([2]; 80 g/ha) | Pre-emergence efficacy against ABUTH ([2]; 320 g/ha) | Pre-emergence efficacy against ABUTH ([2]; 1280 g/ha) | Pre-emergence efficacy against VIOTR in % (Viola tricolor (VIOTR); application rate 80 g/ha) | Pre-emergence efficacy against VIOTR in % (Viola tricolor (VIOTR); application rate 320 g/ha) | Pre-emergence efficacy against KCHSC (Kochia scoparia (KCHSC); [4]) | Pre-emergence efficacy against KCHSC (Kochia scoparia (KCHSC); pre-emergence, dosage 320 g/ha) | Pre-emergence efficacy against KCHSC (Kochia scoparia (KCHSC); [5]) | Pre-emergence efficacy against VERPE (Veronica persica (VERPE); 80 g/ha) | Pre-emergence efficacy against VERPE (Veronica persica (VERPE); 320 g/ha) | Pre-emergence efficacy against LOLRI (Lolium rigidum (LOLRI); 80 g/ha) | Pre-emergence efficacy against LOLRI (Lolium rigidum (LOLRI); 320 g/ha) | Pre-emergence efficacy against AMARE in % ([3]; 80 g/ha) | Pre-emergence efficacy against AMARE in % ([3]; 320 g/ha) | Pre-emergence efficacy against AMARE in % ([3]; 1280 g/ha)

Cc1cccc(Oc2ncc(F)cn2)c1OS(=O)(=O)CCC(F)(F)F [Example I-45]
80%: Pre-emergence efficacy against AMARE ([1]; 80 g/ha)
100%: Pre-emergence efficacy against AMARE ([1]; 320 g/ha) | Pre-emergence efficacy against ABUTH ([2]; 80 g/ha) | Pre-emergence efficacy against ABUTH ([2]; 320 g/ha) | Pre-emergence efficacy against ABUTH ([2]; 1280 g/ha) | Pre-emergence efficacy against VIOTR in % (Viola tricolor (VIOTR); application rate 80 g/ha) | Pre-emergence efficacy against VIOTR in % (Viola tricolor (VIOTR); application rate 320 g/ha) | Pre-emergence efficacy against KCHSC (Kochia scoparia (KCHSC); pre-emergence, dosage 320 g/ha) | Pre-emergence efficacy against KCHSC (Kochia scoparia (KCHSC); [5]) | Pre-emergence efficacy against AMARE in % ([3]; 320 g/ha) | Pre-emergence efficacy against AMARE in % ([3]; 1280 g/ha)
90%: Pre-emergence efficacy against LOLRI (Lolium rigidum (LOLRI); 320 g/ha) | Pre-emergence efficacy against AMARE in % ([3]; 80 g/ha)

Cc1cccc(Oc2ncc(F)cn2)c1OS(=O)(=O)CCCC(F)(F)F [Example I-46]
80%: Pre-emergence efficacy against AMARE ([1]; 80 g/ha)
100%: Pre-emergence efficacy against AMARE ([1]; 320 g/ha) | Pre-emergence efficacy against ABUTH ([2]; 320 g/ha) | Pre-emergence efficacy against ABUTH ([2]; 1280 g/ha) | Pre-emergence efficacy against VIOTR in % (Viola tricolor (VIOTR); application rate 80 g/ha) | Pre-emergence efficacy against VIOTR in % (Viola tricolor (VIOTR); application rate 320 g/ha) | Pre-emergence efficacy against LOLRI (Lolium rigidum (LOLRI); 320 g/ha) | Pre-emergence efficacy against AMARE in % ([3]; 80 g/ha) | Pre-emergence efficacy against AMARE in % ([3]; 320 g/ha) | Pre-emergence efficacy against AMARE in % ([3]; 1280 g/ha)
90%: Pre-emergence efficacy against ABUTH ([2]; 80 g/ha) | Pre-emergence efficacy against KCHSC (Kochia scoparia (KCHSC); [5])

O=S(=O)(CCC(F)(F)F)Oc1c(F)cccc1Oc1ncc(F)cn1 [Example I-47]
100%: Pre-emergence efficacy against AMARE ([1]; 80 g/ha) | Pre-emergence efficacy against AMARE ([1]; 320 g/ha) | Pre-emergence efficacy against ABUTH ([2]; 80 g/ha) | Pre-emergence efficacy against ABUTH ([2]; 320 g/ha) | Pre-emergence efficacy against ABUTH ([2]; 1280 g/ha) | Pre-emergence efficacy against VIOTR in % (Viola tricolor (VIOTR); application rate 80 g/ha) | Pre-emergence efficacy against VIOTR in % (Viola tricolor (VIOTR); application rate 320 g/ha) | Pre-emergence efficacy against KCHSC (Kochia scoparia (KCHSC); [4]) | Pre-emergence efficacy against KCHSC (Kochia scoparia (KCHSC); pre-emergence, dosage 320 g/ha) | Pre-emergence efficacy against KCHSC (Kochia scoparia (KCHSC); [5]) | Pre-emergence efficacy against LOLRI (Lolium rigidum (LOLRI); 320 g/ha) | Pre-emergence efficacy against AMARE in % ([3]; 80 g/ha) | Pre-emergence efficacy against AMARE in % ([3]; 320 g/ha) | Pre-emergence efficacy against AMARE in % ([3]; 1280 g/ha)
90%: Pre-emergence efficacy against LOLRI (Lolium rigidum (LOLRI); 80 g/ha)
